Columns and labels:
[1] = system: common carotid artery intima-media thickness in asymptomatic subjects with a carotid plaque; assay: Carotid ultrasound, change in mean intima-media thickness (IMTmean) in the common carotid artery, 36 months double-blind placebo-controlled trial; type: in vivo, human; conditions: for Common carotid IMTmean, Δ 18 months to baseline (± SD) / Common carotid IMTmean, Δ 36 months to baseline (± SD): mean change; for Common carotid IMTmean, 18 months (± SD): mean value at 18 months follow-up, metoprolol 25 mg o.d. / fluvastatin 40 mg o.d., factorial groups; for Common carotid IMTmean, 36 months (± SD): mean value at 36 months follow-up; for Common carotid IMTmean, Δ between groups at 36 months (95% CI): versus placebo
Excerpt: (§1) The study population consisted of asymptomatic men and women, aged 49 to 70 years, with a plaque in the right carotid artery. A random 50% of those who entered the study were invited to take part in a study on the epidemiology of carotid artery disease. 1548 subjects came to the enrolment examination (visit one) including medical history, physical examination, laboratory measurements and a two-dimensional B-mode ultrasound of the right carotid artery. Subjects with a qualifying lesion in the right carotid artery, and who had no contraindications to the study protocol were invited to take part. In all, 793 subjects were eligible for randomization. All participants provided written informed consent Major exclusion criteria were history of myocardial infarction, angina pectoris or stroke within the preceding three months, history of surgical intervention in the right carotid artery, regular use of beta-blockers or stating, blood pressure above 160 systolic or 95 mm Hg diastolic, hypercholesterolemia (>8.0 mmol/L), hyperglycemia requiring or suspected to require insulin treatment, and conditions which in the opinion of the investigator rendered the subject unsuitable for the trial. […] Death and incidence of major cardiovascular endpoints were monitored. […] Throughout the trial an Acuson 128 […] (Acuson, Mountain View, Calif.) with a 7 MHz transducer was used. The examination procedure and image analysis, as described elsewhere ([…] et al., Clin Physiol, 11:565-577, 1991; […] et al., Stroke, 28:2195-2200, 1997) was performed by specially trained sonographers certified upon completion of an extensive educational program (Berglund, et al., J Intern Med, 236:581-586, 1994). In brief, the right carotid bifurcation was scanned within a pre-defined window comprising three centimeters of the distal common carotid artery, the bifurcation and one centimeter of the internal and external carotid arteries, respectively, for the presence of plaques, defined as focal intima-media thickenings above 1.2 mm. Thickness of the intima-media complex was measured in the far wall according to the leading edge principle, using a specially designed computer-assisted image analyzing system based on automated detection of the echo structures, but with the option to make manual corrections by the operator. Each image was analyzed without knowledge of the subjects' randomization group. From previous experience (Furberg et al., Circulation, 90:1679-1687, 1994) it was anticipated that the annual carotid artery […] progression rate in the placebo group would be approximately 15 μm per year with a standard deviation of 30 μm. […] The primary effect variables, change in […], and […] Bulb, was analyzed in a linear model with change in IMT as dependent variable and with treatment as a factor. Baseline IMTs and time between measurements were included in the model as covariates.

[2] = system: carotid bulb intima-media thickness in asymptomatic subjects with a carotid plaque; assay: Carotid ultrasound, change in maximum intima-media thickness (IMTmax) in the carotid bulb (bifurcation), 36 months double-blind placebo-controlled trial; type: in vivo, human; conditions: for Bifurcation carotid IMTmean, Δ 18 months to baseline (± SD) / Bifurcation carotid IMTmean, Δ 36 months to baseline (± SD): mean change; for Bifurcation carotid IMTmean, 18 months (± SD): mean value at 18 months follow-up; for Bifurcation carotid IMTmean, 36 months (± SD): mean value at 36 months follow-up; for Bifurcation carotid IMTmean, Δ between groups at 36 months (95% CI): versus placebo
Excerpt: as §1

[3] = system: cardiovascular (CVD) events in asymptomatic subjects with a carotid plaque; assay: Incidence of cardiovascular events during follow-up; type: in vivo, human; conditions: metoprolol versus 13 cases placebo, p=0.055; fluvastatin versus 11 cases placebo, p=0.350
Excerpt: Death and incidence of major cardiovascular endpoints were monitored.

[4] = human, in vivo, 36 months
Experimental: A large scale clinical trial was designed to investigate the effect of low dose betablocker metoprolol on the progression of carotid IMT versus placebo and clinical outcome measures during 36 months double-blind treatment in asymptomatic subjects with a carotid plaque. The study was a randomized, double blind, parallel group, placebo-controlled, single-center study.
The randomization procedure was performed by using a computer generated randomization scheme. Participants were, according to a factorial design, randomly assigned to one of four drug combination groups: placebo/placebo, metoprolol (25 mg o.d)/placebo, fluvastatin (40 mg o.d.)/placebo or metoprolol (25 mg o.d.)/fluvastatin (40 mg o.d.). The placebo was manufactured to exactly resemble the metoprolol CR/XL tablets (AstraZeneca AB, Mölndal, Sweden), and fluvastatin (Novartis Ltd, Basel, Switzerland) capsules, respectively.
Safety and tolerability pattern during treatment with fluvastatin or metoprolol, was evaluated by comparing adverse events and laboratory findings to placebo. Death and incidence of major cardiovascular endpoints were monitored.
Every participant was seen four times during the first year (after one, three, six and twelve months) and every 6 months thereafter. Weight was obtained every six months and a fasting lipid profile (total cholesterol, LDL-lipoprotein, HDL-lipoprotein and triglycerides) was determined every year. Liver transaminases (AST, ALT) and creatine kinase (CK) were obtained at every visit during the first year and then every year thereafter. AST or ALT values ≧3 times, and CK values ≧10 times the upper limit of normal was considered elevated during the study. […] Subjects with high serum cholesterol or triglycerides were advised to a low-fat diet and if evidence of persistent high cholesterol values such subjects were referred to an independent specialist of lipid disorders without knowledge of the subjects randomization assignment. […]

[5] = Metabolic and physiological effects of treatment in the clinical trial; type: in vivo, human
Experimental: A large scale clinical trial was designed to investigate the effect of low dose betablocker metoprolol on the progression of carotid IMT versus placebo and clinical outcome measures during 36 months double-blind treatment in asymptomatic subjects with a carotid plaque. The study was a randomized, double blind, parallel group, placebo-controlled, single-center study. The randomization procedure was performed by using a computer generated randomization scheme. Participants were, according to a factorial design, randomly assigned to one of four drug combination groups: placebo/placebo, metoprolol (25 mg o.d)/placebo, fluvastatin (40 mg o.d.)/placebo or metoprolol (25 mg o.d.)/fluvastatin (40 mg o.d.). The placebo was manufactured to exactly resemble the metoprolol CR/XL tablets (AstraZeneca AB, […] , Sweden), and fluvastatin (Novartis Ltd, Basel, Switzerland) capsules, respectively. Every participant was seen four times during the first year (after one, three, six and twelve months) and every 6 months thereafter. Weight was obtained every six months and a fasting lipid profile (total cholesterol, LDL-lipoprotein, HDL-lipoprotein and triglycerides) was determined every year. Liver transaminases (AST, ALT) and creatine kinase (CK) were obtained at every visit during the first year and then every year thereafter. AST or ALT values ≧3 times, and CK values ≧10 times the upper limit of normal was considered elevated during the study. Carotid ultrasound investigation was performed at baseline and after 18 and 36 months treatment.

[6] = in comparison to the placebo group

Compound | Common carotid IMTmean, Δ 18 months to baseline (± SD) [1] [μm] | Common carotid IMTmean, Δ 36 months to baseline (± SD) [1] [μm] | Common carotid IMTmean, 18 months (± SD) [1] [μm] | Common carotid IMTmean, 36 months (± SD) [1] [μm] | Common carotid IMTmean, Δ between groups at 36 months (95% CI) [1] | Bifurcation carotid IMTmean, Δ 18 months to baseline (± SD) [2] [μm] | Bifurcation carotid IMTmean, Δ 36 months to baseline (± SD) [2] [μm] | Bifurcation carotid IMTmean, 18 months (± SD) [2] [μm] | Bifurcation carotid IMTmean, 36 months (± SD) [2] [μm] | Bifurcation carotid IMTmean, Δ between groups at 36 months (95% CI) [2] | CVD events during follow-up [3] [cases] | Permanent withdrawal from randomized treatment [4] [%] | further results
CC(C)n1c(/C=C/C(O)CC(O)CC(=O)O)c(-c2ccc(F)cc2)c2ccccc21 (centres unmarked) [Fluvastatin, fluvastatin] | −5 ± 11 | 11 ± 11 | 890 ± 196 | 905 ± 205 | −25 (−44 to −7) μm | 63 ± 334 | 170 ± 374 | 1965 ± 554 | 2095 ± 652 | −41 (−102 to 19) μm | 7 | 21 | IMTmean CCA progression, mean difference of yearly change between groups ([1]; compared with placebo after 36 months of treatment, 95% CI −15 to −3, p=0.002): −9 μm; frequency of transiently high liver enzymes ([4]; female): 10.2%
COCCc1ccc(OCC(O)CNC(C)C)cc1 (centres unmarked) [Metoprolol, metoprolol] | −5 ± 12 | 22 ± 13 | 908 ± 205 | 934 ± 220 | −2 (−20 to 17) μm | 23 ± 325 | 154 ± 411 | 1937 ± 572 | 2003 ± 624 | −73 (−133 to −13) μm | 5 | 15 | reduced the rate of progression of IMTmean CCA compared with placebo ([1]; after 36 months of treatment, result in words): not; carotid IMTmaxBulb progression, mean difference of yearly change between groups ([2]; after 18 months of treatment, 95% CI −94 to −23, p=0.004): −58 μm; carotid IMTmaxBulb progression, mean difference of yearly change between groups ([2]; after 36 months, subgroup with serum cholesterol at baseline, 95% CI −87 to −19, p=0.001): −53 μm; carotid IMTmaxBulb progression, mean difference of yearly change between groups ([2]; compared with placebo after 36 months of treatment, 95% CI −44 to −3, p=0.014): −23 μm; effect on other metabolic variables ([5]; compared to the placebo group): no effect; change of blood pressure [5, 6]: not significantly changed; change of lumen diameter [5, 6]: not significantly changed; decrease of mean heart rate in comparison to the placebo group ([5]; metoprolol 25 mg o.d.): 2.5 beats per min; increase of serum triglycerides compared to the placebo group ([5]; metoprolol 25 mg o.d.): 0.14 mmol/L

Source: patent publication US20060252814A1, “Formulation comprising a betablocker and optionally a cholestrol-lowering agent” (AstraZeneca AB, priority 2000, published 2006)
